Test results reported in PubChem BioAssay (NCI).
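Dose response: 5 concentrations. Exposure: 48 h. Format: 96-well plates. Endpoint: linear interpolation; highest concentration if not reached. The concentration for full growth arrest is given as TGI.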

How the values were obtained:
Test in all cases: NCI tumour cell line growth inhibition, 48 h
EKVX NSCLC = tested on: EKVX NSCLC
SNB-75 CNS = tested on: SNB-75 CNS
HT29 colon = tested on: HT29 colon
IGROV1 ovarian = tested on: IGROV1 ovarian
OVCAR-5 ovarian = tested on: OVCAR-5 ovarian
U251 CNS = tested on: U251 CNS
A549 NSCLC = tested on: A549 NSCLC
KM20L2 colon = tested on: KM20L2 colon
UACC-62 melanoma = tested on: UACC-62 melanoma
DMS 114 small cell lung = tested on: DMS 114 small cell lung
K-562 leukemia = tested on: K-562 leukemia
SF-295 CNS = tested on: SF-295 CNS
SW-620 colon = tested on: SW-620 colon
MALME-3M melanoma = tested on: MALME-3M melanoma
SK-OV-3 ovarian = tested on: SK-OV-3 ovarian
SF-539 CNS = tested on: SF-539 CNS
HL-60(TB) leukemia = tested on: HL-60(TB) leukemia
SF-268 CNS = tested on: SF-268 CNS
CAKI-1 renal = tested on: CAKI-1 renal
SN12C renal = tested on: SN12C renal
SK-MEL-5 melanoma = tested on: SK-MEL-5 melanoma
HOP-92 NSCLC = tested on: HOP-92 NSCLC
CCRF-CEM leukemia = tested on: CCRF-CEM leukemia
MOLT-4 leukemia = tested on: MOLT-4 leukemia
HCT-15 colon = tested on: HCT-15 colon
786-0 renal = tested on: 786-0 renal
DMS 273 small cell lung = tested on: DMS 273 small cell lung
SK-MEL-2 melanoma = tested on: SK-MEL-2 melanoma
HOP-18 NSCLC = tested on: HOP-18 NSCLC
ACHN renal = tested on: ACHN renal
SNB-19 CNS = tested on: SNB-19 CNS
NCI-H226 lung = tested on: NCI-H226 lung
TK-10 renal = tested on: TK-10 renal
KM12 colon = tested on: KM12 colon
OVCAR-8 ovarian = tested on: OVCAR-8 ovarian
OVCAR-4 ovarian = tested on: OVCAR-4 ovarian
NCI-H23 lung = tested on: NCI-H23 lung
DLD-1 colon = tested on: DLD-1 colon
SK-MEL-28 melanoma = tested on: SK-MEL-28 melanoma
HCC-2998 colon = tested on: HCC-2998 colon
A498 renal = tested on: A498 renal
SNB-78 CNS = tested on: SNB-78 CNS
HOP-62 NSCLC = tested on: HOP-62 NSCLC
NCI-H522 lung = tested on: NCI-H522 lung
UO-31 renal = tested on: UO-31 renal
OVCAR-3 ovarian = tested on: OVCAR-3 ovarian
M19-MEL melanoma = tested on: M19-MEL melanoma
M14 melanoma = tested on: M14 melanoma
UACC-257 melanoma = tested on: UACC-257 melanoma
RXF 393 renal = tested on: RXF 393 renal
LXFL 529 NSCLC = tested on: LXFL 529 NSCLC
SR leukemia = tested on: SR leukemia
COLO 205 colon = tested on: COLO 205 colon
LOX IMVI melanoma = tested on: LOX IMVI melanoma
HCT-116 colon = tested on: HCT-116 colon
NCI-H460 lung = tested on: NCI-H460 lung

Measured: TGI

CC1=NS(=O)(=O)c2ccccc2N1
> 100 µM: all assays above
